Data reported in publication PMC11435135, “Diagnosis of Prostate Cancer with a Neurotensin–Bombesin Radioligand Combination—First Preclinical Results” (Pharmaceutics, 2024).

Legend:
[1] = tested on: PC-3 cells; test: Uptake/internalization of [99mTc]Tc-DT11 in PC-3 cells; assay type: cell-based, human; settings: radioligand alone, 1 h at 37 °C
Procedure: The day preceding the experiment, PC-3 cells were transferred in 6-well plates (1 × 10^6 cells in 3 mL culture medium per well), and the plates were positioned in the incubator. On the day of the experiment, the plates were placed on ice and the supernatant was aspirated and discarded. The cells were rinsed with 2 × 2 mL ice-cold internalization medium (IM, RPMI-1640 with 1% FBS) and the plates were placed on the bench. Warm IM (1.2 mL at 37 °C) was added to the wells, followed by either warm IM (150 µL—3 upper wells, total series) or excess NT in IM (150 µL to a final concentration of 1 µM—3 lower wells, non-specific series). In a last step, [^99mTc]Tc-DT11 in phosphate-buffered saline with 0.5% bovine serum albumin (PBS-BSA) was added to all plates (250 fmol peptide, ≈100,000 cpm). Cells were incubated for 1 h at 37 °C in an Incubator-Orbital Shaker unit (MPM Instr. SrI, Bernareggio, Milan, Italy). Incubation was interrupted by placing the plates on ice and collecting the supernatants in separate plastic tubes. The cells were rinsed with ice-cold PBS-BSA (1 mL) and the liquid was collected and combined with the respective supernatant tubes. The plates were placed on the bench and incubated 2 × 5 min with acid buffer (2 × 600 µL, 50 mM Gly in 0.1 M NaCl, pH 2.8). Supernatants were again collected and combined in individual tubes (membrane-bound fractions). Cells were rinsed with ice-cold PBS-BSA (1 mL), which was aspirated and discarded. Finally, the cells were treated with 2 × 600 µL 1 M NaOH, detached, collected and combined in separate tubes (internalized fractions). The radioactivity of all tubes was measured in the gamma counter. The percentage of specific membrane-bound and internalized fractions (their sum corresponding to specific cell-uptake) vs. total radioactivity added per well were calculated by subtracting non-specific values from totals. Results were expressed as average values ± standard deviation (sd) from 3 independent experiments performed in triplicate.

[2] = tested on: PC-3 xenografts; set-up: species or system mice; settings: mouse, in vivo
Procedure: The biodistribution of [^99mTc]Tc-DT11 was studied in male severe combined immunodeficiency (SCID) mice (11 mice 6-weeks of age on arrival date, 18 ± 4 g, NCSR “Demokritos” Animal House, Athens, Greece) bearing PC-3 xenografts in their flanks. Tumor induction was achieved by subcutaneous injection of a PC-3 cell suspension (12 × 10^6 cells in 150 µL PBS) in their flanks. The animals were kept under aseptic conditions and, 3 weeks later, developed palpable masses at the inoculation sites (150 ± 50 mg); biodistribution was then conducted. On the day of the experiment, animals were divided into three groups: controls (n = 4), Entresto® (n = 4) and block (n = 3). All mice were injected in the tail vein with a bolus of [^99mTc]Tc-DT11 (100 µL, 185 kBq, 5 pmol total peptide in vehicle). […] Blood was collected from the heart, and tumors, organs and tissue samples of interest were excised and weighted, and their radioactivity content was measured together with the proper standards of the injected activity in the gamma counter. The percent of injected activity per gram (%IA/g) was calculated, and the results were provided as mean %IA/g values ± sd for each group. […]

[3] = tested on: NTS1R; settings: cited from earlier work
Description: (§1) We decided to investigate the potential advantages–shortcomings of the “radioligand cocktail” approach in human prostate cancer, prompted by the reported co-expression of NTS1R and GRPR in this frequently occurring cancer type. For such a purpose, we opted for the PC-3 cell line to conduct our cell uptake studies as well as to induce subcutaneous xenografts in mice, as it co-expresses the two targets of interest. Based on our previous work on NTS1R- and GRPR-directed radioligands, we selected a cocktail consisting of [^99mTc]Tc-DT11 (NTS1R-specific) [[47] ...

[4] = tested on: GRPR; settings: cited from earlier work
Description: as §1

[5] = NTS1R-specific, % of added activity, mean ± sd, 3 experiments in triplicate

## N4-Lys(MPBA-PEG4)-Arg-Arg-Pro-Tyr-Ile-Leu-OH [[^99mTc]Tc-DT11, Tc-99m labeled DT11, NTS1R-specific neurotensin-based radioligand]
[1]
  internalized fraction as share of cell-associated activity: ≈ 87%
  membrane-bound fraction as share of cell-associated activity: ≈ 13%
[1]; [5]
  internalized fraction: 1.22 ± 0.26%
  membrane-bound fraction: 0.18 ± 0.12%
[2]
  tumor-to-kidney ratio: ≈ 1.5
[3]
  affinity to the respective receptor: sub-nanomolar

## N4-PEG2-DPhe-Gln-Trp-Ala-Val-Gly-His-Leu-NHEt [[^99mTc]Tc-DB7, Tc-99m labeled DB7, GRPR-specific bombesin-based radioligand (GRPR antagonist)]
[4]
  affinity to the respective receptor: sub-nanomolar
